Data reported in ChEMBL document CHEMBL5038601, “Carbohydrate-Based NK1R Antagonists with Broad-Spectrum Anticancer Activity” (J Med Chem, 2021).
Activity calls are given as the source filed them. No cut-off for these calls is given here.

How the values were obtained:
[1] = tested on: A549; assay: Inhibition of glycolysis in human A549 cells assessed as reduction in glucose consumption incubated for 8 hrs by colorimetric-oxidase mediator analysis; assay type: functional, cell-based
[2] = tested on: A549; assay: Inhibition of glycolysis in human A549 cells assessed as reduction in lactate production incubated for 8 hrs by colorimetric-oxidase mediator analysis; assay type: functional, cell-based

O=C(O)C(Cl)Cl
inhibition [1]: Active | inhibition [2]: Active
